Patent US8278459B2, “UV-filter compounds” (DSM IP Assets B.V., priority 2007, dated 2012)

Experiment: Skin binding experiment (pig ear skin, THF extraction, HPLC recovery)
Type: in vitro ADME
Details: for % UV filter bound to the skin: 2% (w) THF solution applied topically at 1 mg/cm^2, 32±1° C., duplicates
Protocol: The skin binding properties were determined by the following experiment. Skin samples (1 cm^2 each) were prepared by punching out from pig ear. The skin samples were placed in a 2 mL eppendorf plastic tube. The studied compounds were applied topically as a 2% (w) THF solution on the skin surface at a mean dose rate of 1 mg/cm^2. The samples were placed in a heatingblock and maintained at a normal skin temperature of 32±1° C. for the duration of the exposure period. At the end of the experiment, after 24 hours, respectively 72 h, each skin probe was extracted by shaking with 1000 μl of THF for 1 min and the resulting solution was analyzed by HPLC. The experiments were run in duplicates.
Compounds B and was tested for their skin-binding capacity, while compound A (described in Kawashita, Y; Nakamichi, N.; Kawabata, H.; Hayashi, M. Org. Lett. 2003, 5, 3713-3715) was used as a non-binding reference.
Skin fraction samples were injected into the HPLC system using DAD detection with the following conditions:
The % of UV filter bound to the skin was determined by calculation of the recovery rate using the following equation: […]

Row | % UV filter bound to the skin (After 24 h) | % UV filter bound to the skin (After 72 h) | adhesion to the skin (in words) (compared to the non-binding compound A) | SMILES
1 | 36.3% | 61.1% | – | Cc1ccc(-c2nc3ccccc3o2)cc1 [Compound A, reference compound]
2 | 96.6% | 100% | significant adhesion to the skin | O=C(CO)C(O)C(O)c1ccc(-c2nc3ccccc3o2)cc1 (centres unmarked) [Compound B, 4-(4-Benzoxazol-2-yl-phenyl)-1,3,4-trihydroxy-butan-2-one]
